Data reported in patent US8039668B2, “Naphthalene-based inhibitors of anti-apoptotic proteins” (Burnham Institute for Medical Research, priority 2008, dated 2011).
Where two headings read alike, the source gives them in different places.

What was measured:
[1] = biological target: T1, BCL-XL (Homo sapiens, UniProt Q07817); experiment: 1D 1H-NMR binding assay; design: key to 1D-^1H NMR: +++, Very Active; ++, Active; +, Mild; −, Weak; conditions: for 1D ^1H-NMR Binding Assay (BCL-XL): Table 9; for 1D-^1H NMR: Table 3, BCL-XL 25 μM, compound 200 μM
Procedure: By observing the aliphatic region of the spectra, binding could be readily detected due to chemical shift changes in active site methyl groups of Ile, Leu, Thr, Val or Ala (region between −0.8 and 0.3 ppm). All experiments were performed with a 600 MHz spectrometer Bruker Avance 600 equipped with four rf channels and z-axis pulse-field gradients.
Target sequence in this assay (Q07817 whole entry): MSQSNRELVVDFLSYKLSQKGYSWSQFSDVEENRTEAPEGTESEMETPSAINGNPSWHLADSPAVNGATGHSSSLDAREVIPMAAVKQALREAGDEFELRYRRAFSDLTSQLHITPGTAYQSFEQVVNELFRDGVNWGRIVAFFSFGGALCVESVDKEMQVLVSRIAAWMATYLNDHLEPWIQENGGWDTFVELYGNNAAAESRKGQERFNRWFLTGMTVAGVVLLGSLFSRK

[2] = system: human lymphoma RS11846 cell line; experiment: Apoptosis, Annexin V-FITC and propidium iodide assay; assay type: cell-based; conditions: for EC50: Homo sapiens
[3] = system: PC3ML cells; experiment: Cell viability, ATP-LITE assay; assay type: cell-based, human; conditions: Homo sapiens, PC3-ML
Procedure: (§1) The activity of the compounds against human cancer cell lines (PC3ML, H460, H1299, RS11846) were assessed by using the ATP-LITE assay (PerkinElmer). All cells were seeded in either F12 or RPMI1640 medium with 5 mM L-glutamine supplemented with 5% fetal bovine serum (Mediatech Inc.), penicillin and streptomycin (Omega). For maintenance, cells were cultured in 5% FBS. Cells plated into 96 well plates at varying initial densities depending on doubling time. H460 and H1299 plated at 2000 cells/well, A549 and PC3 at 3000 cells/well, and RS118456S at 10,000 cells/well. Compounds were diluted to final concentrations with 0.1% DMSO. Prior to dispensing compounds onto cells, fresh 5% media was placed into wells. Administration of compounds occurred 24 hours after seeding into the fresh media. Cell viability was evaluated using ATP-LITE reagent (PerkinElmer) after 72 hours of treatment. Data were normalized to the DMSO control-treated cells using Prism version 5.01 (Graphpad Software).

[4] = system: H1299 cell line; experiment: Cell viability, ATP-LITE assay; assay type: cell-based, human; conditions: Homo sapiens
Procedure: as §1

[5] = system: RS11846 cell line; experiment: Cell viability, ATP-LITE assay; assay type: cell-based; conditions: Homo sapiens, read-out: RS11846 EC50 (ATP-LITE assay)
Procedure: as §1

[6] = system: H460 human lung cell line; experiment: Cell viability, ATP-LITE assay; assay type: cell-based; conditions: Homo sapiens
Procedure: as §1

[7] = biological target: T1, BCL-XL; experiment: Competitive fluorescence polarization assay (FPA), Bak BH3 peptide; assay type: binding; design: 100 nM GST-BCL-XL ΔTM protein; conditions: Table 9
Procedure: For competitive binding assays, 100 nM GST-BCL-XL ΔTM protein was preincubated with the tested compound at varying concentrations in 47.5 μL PBS (pH=7.4) in 96-well black plates at room temperature for 10 min, then 2.5 μL of 100 nM FITC-labeled Bak BH3 peptide was added to produce a final volume of 50 μL. The wild-type and mutant Bak BH3 peptides were included in each assay plate as positive and negative controls, respectively. […] IC50 was determined by fitting the experimental data to a sigmoidal dose-response nonlinear regression model (SigmaPlot 10.0.1, Systat Software, Inc., San Jose, Calif., USA). Data reported are mean of three independent experiments±standard error (SE). […] Fluorescence polarization was measured after 10 min.
Target sequence in this assay (Q07817 1-209 limits assumed): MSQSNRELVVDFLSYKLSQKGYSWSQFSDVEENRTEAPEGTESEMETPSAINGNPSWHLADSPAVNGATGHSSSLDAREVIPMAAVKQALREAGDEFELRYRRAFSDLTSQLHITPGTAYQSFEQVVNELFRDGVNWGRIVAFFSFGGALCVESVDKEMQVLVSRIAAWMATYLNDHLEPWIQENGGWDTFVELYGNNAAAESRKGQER

[8] = system: BP3 human B-cell lymphoma cell line; experiment: Annexin V-FITC and propidium iodide assay; assay type: cell-based; conditions: for EC50: Homo sapiens, B-cell, Table 3, Annexin V-FITC and propidium iodide assay, read-out: EC50 BP3
[9] = Table 9, read-out: RS11846 EC50 (Annexin V- and propidium iodide assay)
[10] = NCI-H1299, Table 9, read-out: H1299 EC50
[11] = NCI-H460, Table 9, read-out: H460 EC50
[12] = read-out: RS11846 EC50 (Annexin V- and propidium iodide assay), Table 9
[13] = NCI-H1299, read-out: H1299 EC50
[14] = Table 3, Annexin V-FITC and propidium iodide assay, heading: EC50 RS11846, read-out: EC50 RS11846
[15] = NCI-H460, heading: EC50 H460, Table 3, ATP-LITE assay, read-out: EC50 H460

EC50 [2, 9] [µM]	EC50 ([3]; Table 9, read-out: PC3ML EC50) [µM]	EC50 [4, 10] [µM]	EC50 [6, 11] [µM]	IC50 ([7]; read-out: FPA IC50 (BCL-XL)) [µM]	Compound	1D ^1H-NMR Binding Assay (BCL-XL) [1]	EC50 ([5]; Table 9) [µM]	also measured
13.4	2.8	4.8	3.6		Cc1cc2c(C(=O)c3ccc(C(C)(C)C)cc3)c(O)c(O)cc2c(O)c1-c1c(C)cc2c(C(=O)c3ccc(C(C)(C)C)cc3)c(O)c(O)cc2c1O [Compound X, (1,1′,6,6′,7,7′-hexahydroxy-3,3′-dimethyl-2,2′-binaphthyl-5,5′-diyl)bis((4-tert-butylphenyl)methanone)]	−	2.3	
3 to 5.5	2.9	2	2.2	0.25	Cc1cc2c(C(=O)c3ccc(C(F)(F)F)cc3)c(O)c(O)cc2c(O)c1-c1c(C)cc2c(C(=O)c3ccc(C(F)(F)F)cc3)c(O)c(O)cc2c1O [Compound XI, (1,1′,6,6′,7,7′-hexahydroxy-3,3′-dimethyl-2,2′-binaphthyl-5,5′-diyl)bis((4-(trifluoromethyl)phenyl)methanone)]	+	2.5	
18.3	3.6	4.2		2.9	Cc1cc2c(C(=O)c3ccccc3)c(O)c(O)cc2c(O)c1-c1c(C)cc2c(C(=O)c3ccccc3)c(O)c(O)cc2c1O [Compound VII, (1,1′,6,6′,7,7′-hexahydroxy-3,3′-dimethyl-2,2′-binaphthyl-5,5′-diyl)bis(phenylmethanone)]	+		
5.2	1.9	2.1	1.8		Cc1cc2c(C(=O)CC3CCCCC3)c(O)c(O)cc2c(O)c1-c1c(C)cc2c(C(=O)CC3CCCCC3)c(O)c(O)cc2c1O [Compound XV, 1,1′-(1,1′,6,6′,7,7′-hexahydroxy-3,3′-dimethyl-2,2′-binaphthyl-5,5′-diyl)bis(2-cyclohexylethanone)]	+	2	
3.1	2.8	2.2	1.5	0.14	Cc1cc2c(C(=O)CCc3ccc(F)cc3)c(O)c(O)cc2c(O)c1-c1c(C)cc2c(C(=O)CCc3ccc(F)cc3)c(O)c(O)cc2c1O [Compound XVI, 1,1′-(1,1′,6,6′,7,7′-hexahydroxy-3,3′-dimethyl-2,2′-binaphthyl-5,5′-diyl)bis(3-(4-fluorophenyl)propan-1-one)]	++	2.3	
6.6	3	3	1.5	1.29	CCCCC(CC)CC(=O)c1c(O)c(O)cc2c(O)c(-c3c(C)cc4c(C(=O)CC(CC)CCCC)c(O)c(O)cc4c3O)c(C)cc12 (centres unmarked) [Compound V, 1,1′-(1,1′,6,6′,7,7′-hexahydroxy-3,3′-dimethyl-2,2′-binaphthyl-5,5′-diyl)bis(3-ethylheptan-1-one)]	+	2.8	

More lines, now with the values behind:

Compound	EC50 [2, 9] [µM]	EC50 ([3]; Table 9, read-out: PC3ML EC50) [µM]	EC50 [4, 10] [µM]	EC50 [6, 11] [µM]	IC50 ([7]; read-out: FPA IC50 (BCL-XL)) [µM]	1D ^1H-NMR Binding Assay (BCL-XL) [1]	EC50 ([5]; Table 9) [µM]	also measured
Cc1cc2c(C(=O)Cc3ccc(OC(F)(F)F)cc3)c(O)c(O)cc2c(O)c1-c1c(C)cc2c(C(=O)Cc3ccc(OC(F)(F)F)cc3)c(O)c(O)cc2c1O [Compound XIV, 1,1′-(1,1′,6,6′,7,7′-hexahydroxy-3,3′-dimethyl-2,2′-binaphthyl-5,5′-diyl)bis(2-(4-(trifluoromethoxy)phenyl)ethanone)]						++		EC50 [2, 12]: 6.2 µM; EC50 ([3]; read-out: PC3ML EC50, Table 9): 1.9 µM; EC50 [4, 13]: 3.9 µM; IC50 ([7]; FPA IC50 (BCL-XL)): 1.3 µM; EC50 [5]: 1.8 µM; EC50 ([6]; NCI-H460, read-out: H460 EC50): 3.3 µM
Cc1cc2cc(O)c(O)cc2c(O)c1-c1c(C)cc2cc(O)c(O)cc2c1O [Compound II, 3,3′-dimethyl-2,2′-binaphthyl-1,1′,6,6′ 7,7′-hexaol]	24.7	12.6	13.4	10.1		+	10	
Cc1cc2c(C(=O)CC(C)C)c(O)c(O)cc2c(O)c1-c1c(C)cc2c(C(=O)CC(C)C)c(O)c(O)cc2c1O [Compound IV, 1,1′-(1,1′,6,6′,7,7′-hexahydroxy-3,3′-dimethyl-2,2′-binaphthyl-5,5′-diyl)bis(3-methylbutan-1-one)]	13.7	7.5	3.6	1.1	1.3	+	10	
Cc1cc2c(C(=O)c3ccc(-c4ccccc4)cc3)c(O)c(O)cc2c(O)c1-c1c(C)cc2c(C(=O)c3ccc(-c4ccccc4)cc3)c(O)c(O)cc2c1O [Compound IX, (1,1′,6,6′,7,7′-hexahydroxy-3,3′-dimethyl-2,2′-binaphthyl-5,5′-diyl)bis(biphenyl-4-ylmethanone)]						+		EC50 [2, 12]: 25.9 µM; EC50 ([3]; read-out: PC3ML EC50, Table 9): 7.7 µM; EC50 [4, 13]: 9.6 µM; EC50 [5]: 2.8 µM; EC50 ([6]; NCI-H460, read-out: H460 EC50): 8.2 µM
Cc1cc2c(C(=O)O)c(O)c(O)cc2c(O)c1-c1c(C)cc2c(C(=O)O)c(O)c(O)cc2c1O [Compound 14, 1,1′,6,6′,7,7′-hexahydroxy-3,3′-dimethyl-2,2′-binaphthyl-5,5′-dicarboxylic acid]								1D-^1H NMR [1]: −; EC50 [2, 14]: > 30 µM; induction of apoptosis of the RS11846 cell line ([2]; in words): weak or no apoptosis; EC50 ([3]; Table 3, ATP-LITE assay, heading: EC50 PC3ML, read-out: EC50 PC3ML): > 30 µM; EC50 ([4]; NCI-H1299, heading: EC50 H1299, Table 3, ATP-LITE assay, read-out: EC50 H1299): > 30 µM; EC50 [6, 15]: > 30 µM; EC50 ([8]; heading: EC50 BP3): > 30 µM
Cc1cc2c(C(=O)Cc3cccc(Br)c3)c(O)c(O)cc2c(O)c1-c1c(C)cc2c(C(=O)Cc3cccc(Br)c3)c(O)c(O)cc2c1O [Compound XIII, 1,1′-(1,1′,6,6′,7,7′-hexahydroxy-3,3′-dimethyl-2,2′-binaphthyl-5,5′-diyl)bis(2-(3-bromophenyl)ethanone)]						++		EC50 [2, 12]: 5.3 µM; EC50 ([3]; read-out: PC3ML EC50, Table 9): 3.1 µM; EC50 [4, 13]: 2.6 µM; IC50 ([7]; FPA IC50 (BCL-XL)): 1.31 µM; EC50 [5]: 8.4 µM; EC50 ([6]; NCI-H460, read-out: H460 EC50): 2.7 µM
CN(C)CC[C@H](CSc1ccccc1)Nc1ccc(S(=O)(=O)NC(=O)c2ccc(N3CCN(Cc4ccccc4-c4ccc(Cl)cc4)CC3)cc2)cc1[N+](=O)[O-] [ABT-737, reference compound]								cell activity against BP3 cell lines [8]: no cell activity
Cc1cc2c(C(=O)NCCc3ccc(Cl)cc3)c(O)c(O)cc2c(O)c1-c1c(C)cc2c(C(=O)NCCc3ccc(Cl)cc3)c(O)c(O)cc2c1O [Compound 8t, N^5,N^5′-bis(4-chlorophenethyl)-1,1′,6,6′,7,7′-hexahydroxy-3,3′-dimethyl-2,2′-binaphthyl-5,5′-dicarboxamide]								1D-^1H NMR [1]: ++; EC50 [2, 14]: 5.1 µM; EC50 [6, 15]: 1.3 µM; EC50 [8]: 0.7 µM
Cc1cc2c(C(=O)C(C)C)c(O)c(O)cc2c(O)c1-c1c(C)cc2c(C(=O)C(C)C)c(O)c(O)cc2c1O [Compound III, 1,1′-(1,1′,6,6′,7,7′-hexahydroxy-3,3′-dimethyl-2,2′-binaphthyl-5,5′-diyl)bis(2-methylpropan-1-one)]						++		EC50 [2, 12]: 14.7 µM; EC50 ([3]; read-out: PC3ML EC50, Table 9): 3.9 µM; EC50 [4, 13]: 4.8 µM; EC50 [5]: 15 µM; EC50 ([6]; NCI-H460, read-out: H460 EC50): 1.5 µM
